In patent US20110082329A1, “Modification of Sperm Motility and Its Storage Shelf Time” (priority 2008, published 2011):

Key:
[1] = tested on: sea urchins (Lytechinus pictus) sperms; test: Sea urchin sperm motility by video microscopy / CASA; type: cell-based
[2] = tested on: human sperm from ejaculates of healthy donors; test: Human sperm motility by video microscopy / CASA; type: cell-based; details: control = 100%
Method: (§1) Animals were washed by sequential immersion into 100 ml cold (approximately 5° C.) sperm storage buffer (SSB) pH 6.0. Used SSB composition: 50 mmol/L KCl, 5.0 mmol/L N-tris(hydroxymethyl)methyl-3-aminopropanesulphonic acid (TAPS), 425 mmol/L NaCl, 27 mmol/L MgCl2, 29 mmol/L MgSO4, 10 mmol/L CaCl2 and 2.4 mmol/L NaHCO3. Shedding of gametes was induced by intracoelomic injection of 2.0 ml cold 0.5 mol/L KCl through several sites on the peristomial membrane of the oral side. Sperm were collected by inverting male sea urchins over beakers containing approximately 100 ml cold MES sperm storage buffer (MSSB) pH 6.0. Used MSSB composition: 50 mmol/L KCl, 5.0 mM 2-[N-morpholino]ethanesulphonic acid (MES), 5.0 mmol/L TAPS, 425 mmol/L NaCl, 27 mmol/L MgCl2, 29 mmol/L MgSO4, 10 mmol/L CaCl2 and 2.4 mmol/L NaHCO3. A pool of sperm from several animals was made to minimize individual variations. Sperms were incubated in room temperature for 20 min. in 0.1-10 ml fractions diluted with 0.1-1000 ml activation buffer (ASW) pH 8.3. ASW composition: 50 mmol/L KCl, 5.0 mmol/L TAPS, 425 mmol/L NaCl, 27 mmol/L MgCl2, 29 mmol/L MgSO4, 10 mmol/L CaCl2, 2.4 mmol/L NaHCO3 and 1.0 mg/ml bovine serum albumin (BSA). The activation buffer contains the appropriate metal ions in a given concentration. […] Metal ions were used as Cl^− salts. Video microscopy was performed at room temperature (22° C.) using a Nikon Diaphot inverted microscope with 20× BM phase objective and 1× video adapter connected to a Dage CCD72 camera. […] The video signal was sent via a video time clock to a Panasonic VHS video recorder. Motility was recorded on multiple viewing fields for 15 sec per field until the recorded total sperm number reached 400. Video tapes were analyzed using CellTrack system. Measurements were carried out in triplicates. Sperm motility is expressed in %, where control values represent 100% (Bracho et al.: “A Method for Preparation, Storage and Activation of Large Populations of Immotile Sea Urchin Sperm”, BBRC 237, 59-62 (1997)).
Sperms originating from ejaculates (2.0-5.0 ml) of healthy donors are diluted with 2.0-1000 ml cold MSSB buffer following liquidification and homogenized without modification of motility. From this point, sample handling and motility measurement is carried out as described in example#1.
(§2) Measurements are carried out using CASA (Computer Assisted Sperm Analysis) method within 12 hours following sperm collection or ejaculation.

[3] = tested on: sea urchins (Lytechinus pictus) sperms; test: Sea urchin sperm motility by video microscopy / CASA; type: cell-based; details: control = 100%
Method: Sperms originating from ripe sea urchins (Lytechinus pictus) showing genetic and functional similarity to human and animal sperms are used (R. Felix: Reproduction 129, 251-262 (2005).
as §1, §2

[4] = tested on: sea urchin sperm; test: Sea urchin sperm motility time course: storage in high Ni^2+, then 100-fold dilution; type: cell-based, Lytechinus pictus; details: time point 0 = 100%
Method: as §1
a) Preparations of sea urchin sperm are produced as described in example 1. Motility measurements are carried out in predetermined time points as described in example#1 starting from time point 0. The activation buffer at time point 0 is supplemented with 20 mmol/L Ni^2+ as NiCl2. After 4 hours, sperm suspensions are diluted 100-fold with activation buffer, achieving 200 μmol/L final Ni^2+ concentration. Measurements of motility are carried out further. Sperm motility is expressed in %, where control values at time point 0 represent 100%.

## [Zn+2] [Zn^2+]
[1]; 16 μmol/L Zn^2+, control printed as 64.3
  motility (%): 51.0%

## [Ni+2] [Ni^2+]
[2]; 1 μmol/L metal ion
  motility (%): 105.7%
[2]; 10 μmol/L metal ion
  motility (%): 126.9%
[2]; 100 μmol/L metal ion
  motility (%): 129.5%
[2]; 1 mmol/L metal ion
  motility (%): 93.2%
[2]; 10 mmol/L metal ion
  motility (%): 88.9%
[3]; 1 μmol/L metal ion
  motility (%): 111.4%
[3]; 10 μmol/L metal ion
  motility (%): 127.3%
[3]; 100 μmol/L metal ion
  motility (%): 132.0%
[3]; 1 mmol/L metal ion
  motility (%): 98.6%
[3]; 10 mmol/L metal ion
  motility (%): 85.2%
[4]; time 0:20, 20 mmol/L Ni^2+
  motility (%): 99.0%
[4]; time 1:00, 20 mmol/L Ni^2+
  motility (%): 85.7%
[4]; time 2:00, 20 mmol/L Ni^2+
  motility (%): 86.8%
[4]; time 3:00, 20 mmol/L Ni^2+
  motility (%): 81.6%
[4]; time 4:00, 20 mmol/L Ni^2+
  motility (%): 76.3%
[4]; time 4:20, after 100-fold dilution at 4 hours to 200 μmol/L Ni^2+
  motility (%): 102.6%
[4]; time 5:00, after 100-fold dilution at 4 hours to 200 μmol/L Ni^2+
  motility (%): 119.0%
[4]; time 6:00, after 100-fold dilution at 4 hours to 200 μmol/L Ni^2+
  motility (%): 123.5%
[4]; time 7:00, after 100-fold dilution at 4 hours to 200 μmol/L Ni^2+
  motility (%): 123.0%
[4]; time 8:00, after 100-fold dilution at 4 hours to 200 μmol/L Ni^2+
  motility (%): 120.6%

## [Cd+2] [Cd^2+]
[1]; 3.5 μmol/L Cd^2+, control printed as 64.0
  motility (%): 49.1%

## [Co+2] [Co^2+]
[2]; 1 μmol/L metal ion
  motility (%): 106.2%
[2]; 10 μmol/L metal ion
  motility (%): 112.7%
[2]; 100 μmol/L metal ion
  motility (%): 122.5%
[2]; 1 mmol/L metal ion
  motility (%): 98.2%
[2]; 10 mmol/L metal ion
  motility (%): 91.0%
[3]; 1 μmol/L metal ion
  motility (%): 108.6%
[3]; 10 μmol/L metal ion
  motility (%): 118.2%
[3]; 100 μmol/L metal ion
  motility (%): 127.5%
[3]; 1 mmol/L metal ion
  motility (%): 101.1%
[3]; 10 mmol/L metal ion
  motility (%): 92.9%
